This note sets out measurements from patent US20030077576A1, “Use of monoclonal antibodies and functional assays for prediction of risk of opportunistic infection” (priority 2001, published 2003).

What all share (type): cell-based, human
In assay [1] the test system is monocyte VLA-5 (CD49e). Conditions: for log fluorescence intensity for VLA-5 (CD49e stained with mAb SAM-1) in the CD14+ (monocyte) population, FN120: 2 μM FN120 for 2 h in the presence of the protease inhibitor; for log fluorescence intensity for VLA-5 (CD49e stained with mAb SAM-1) in the CD14+ (monocyte) population, FN120 / log fluorescence intensity for VLA-5 (CD49e stained with mAb SAM-1) in the CD14+ (monocyte) population, No Rx: 0.2 mM PMSF, 2 mM CdCl2, 40 μM bestatin, 10 μM 1,10 phenanthroline, 0.1 mM EGTA, mean ± SEM, three donors; for log fluorescence intensity for VLA-5 (CD49e stained with mAb SAM-1) in the CD14+ (monocyte) population, No Rx: protease inhibitor alone, no FN120, 2 h. Here is the method:
Briefly, heparinized blood was distributed in 0.1-ml aliquots into polypropylene tubes for incubation with saturating concentrations of primary or secondary antibodies at 4° C. for 30 min. Incubations were separated by two washes with ice-cold Dulbecco's PBS (Gibco Laboratories, Grand Island, N.Y.). FITC-conjugated sheep anti-mouse Ig was used at a dilution of 1:120. PE-conjugated anti-CD14 (clone 116, Beckman Coulter), added after the secondary antibody, was used according to the manufacturer's directions. After leukocytes were stained and washed, red cells were lysed with FACS Lysing Solution (Becton Dickinson). Leukocytes were washed again, fixed in 1% paraformaldehyde, and analyzed by flow cytometry the day of the experiment. […] Total white blood cell (Coulter Counter, Coulter Electronics, Hialeah, Fla.) and differential counts were measured in aliquots of the same blood samples used for immunofluorescence studies. Tests of control blood donors were randomly interspersed among patient samples.
Flow cytometry was performed on an Epics Profile 1 with three fluorescence channels (Coulter Cytometry, Hialeah, Fla.) that has an argon laser tuned to 488 nm. Daily alignment and calibration of the instrument was performed with DNA-check and Standard-Brite fluorescent beads (Coulter). Green (FL1), orange (FL2), and red (FL3) fluorescence signals are measured on a four-decade logarithmic scale. Linearity of log fluorescence intensity was checked with Immuno-Brite fluorescent beads. Appropriate compensations for spectral overlap between the three channels is carried out prior to calculating data. The mean intensity of fluorescence, measured on a 4 decade logarithmic scale, was converted to a linear scale, using a 256 channel histogram, to give a mean channel number, also known as the mean channel fluorescence (MCF). This was used to estimate the average fluorescence emission of cells reactive with specific monoclonal antibodies. Cell surface display of specific mAbs were precisely delineated when necessary by means of quantitative flow cytometry, using the Quantum Simply Cellular Microbeads Kit from Sigma BioSciences, St. Louis, Mo. This kit contained four bead populations that bind graduated quantities of antibodies per bead. […] By interpolation, this standard curve was used to accurately estimate the quantity of antibody bound to other cellular targets. Leukocytes were initially selected for fluorescence analysis by a combination of right-angle and low angle forward light scatter. Two color fluorescence, with PE conjugated anti-CD14 as a qualifier was used specifically to identify monocytes, and anti-CD3 to identify T lymphocytes. Other lymphoid elements were identified, as required, by using appropriate direct antibody conjugates. At least 2500 monocytes were counted in each sample. Fluorescence measurements from isotype controls were subtracted from data obtained with all reported antibodies.
To determine how fragments of fibronectin might affect VLA-5 expression, the effect of adding purified 120 kD and 40 kD fragments of fibronectin to heparin-anticoagulated whole blood from normal donors was measured. The 120 kD fragment has an RGD motif and binds to VLA-5 on cells.

Assay [2] deals with U937 monocytoid cells. Nature of the assay: FN120 treatment of U937 monocytoid cells: proteinase-3 expression and VLA-5 shedding. Conditions: U937 cells treated with FN120. From the text: To further investigate how FN120 causes VLA-5 shedding, U937 monocytoid cells were studied. These display greater quantities of VLA-5 than blood monocytes. They also display the serine protease, proteinase-3, when activated (Rao et al., 1996). U937 cells were washed repeatedly, to remove exogenous fibronectin and serum proteases, and resuspended in serum-free medium for treatment with FN120. […] Treating the cells with polyclonal anti-proteinase-3 or serine proteinase inhibitors such as alpha-antitrypsin blocked proteinase-3 activity. Blocking proteinase-3 activity with either agent prevented hydrolysis and release of VLA-5 molecules that are otherwise shed when U937 cells are incubated with FN120 as shown in FIG. 11.

Assay [3] concerns CD14+ monocytes. Nature of the assay: Monocyte migration into collagenous matrices with or without native fibronectin. The following applies: 4 hrs at 37° C., pads impregnated with full-length 220 kD native fibronectin. Here is the method:
Briefly, monocytes were incubated with collagenous matrices, half of which had been impregnated with full-length 220 kD native fibronectin. After 4 hrs contact at 37° C., unbound MNLs were washed away. The pads were dissolved with collagenase to recover and count the cells that had migrated into the matrix (Birdsall et al., 1997).

`c1cnc2c(c1)ccc1cccnc12` [1,10 phenanthroline]: in assay [1], the “log fluorescence intensity for VLA-5 (CD49e stained with mAb SAM-1) in the CD14+ (monocyte) population, FN120” value (from here on “log fluorescence intensity … FN120”) came to 3.1 ± 0.6 and the “log fluorescence intensity for VLA-5 (CD49e stained with mAb SAM-1) in the CD14+ (monocyte) population, No Rx” value (“log fluorescence intensity … No Rx” for short) was 4.9 ± 0.6. Consider `O=CC[C@@H](O)[C@H](O)[C@H](O)CO` [2-deoxyglucose], for which the “loss of VLA-5 with 120 kD fibronectin fragments when cellular metabolism is inhibited” value in assay [1] (2-deoxyglucose and sodium azide together, with 120 kD fibronectin fragments) is listed as “failed to occur”.

On to `[Cl][Cd][Cl]` [CdCl2], for which, in assay [1], the “log fluorescence intensity … FN120” value was found to be 2.2 ± 0.3 and the “log fluorescence intensity … No Rx” value was found to be 4.7 ± 0.5.

With `O=C(O)CN(CCOCCOCCN(CC(=O)O)CC(=O)O)CC(=O)O` [EGTA], in assay [1], the “log fluorescence intensity … FN120” value amounted to 2.8 ± 0.6 and the “log fluorescence intensity … No Rx” value is given as 5.1 ± 0.3. Consider `O=S(=O)(F)Cc1ccccc1` [PMSF, phenylmethylsulfonylfluoride], for which, in assay [1], the “log fluorescence intensity … FN120” value is 5.8 ± 0.7 and the “log fluorescence intensity … No Rx” value is reported as 5.4 ± 0.5. Regarding `CC(C)C[C@H](NC(=O)[C@@H](O)[C@H](N)Cc1ccccc1)C(=O)O` [bestatin], in assay [1], the “log fluorescence intensity … FN120” value amounted to 2.4 ± 0.5 and the “log fluorescence intensity … No Rx” value worked out at 4.9 ± 0.3. Consider “alpha-antitrypsin: serine proteinase inhibitor”, for which the proteinase-3 activity result in assay [2] is reported as “blocked”. Turning to fibronectin, the “CD14+ monocytes accumulated in fibronectin-containing pads versus plain collagen pads” value in assay [3] is on record as “three times as many”.
